Here are results for three compounds from article PMC4207539 (Journal of Medicinal Chemistry, 2014).

Where “and” joins values, the source holds several entries; their conditions need not be identical. Equal entries are not always repeated.

Data set [1] relates to VEEV TC-83 strain. The format is cell-based, Venezuelan equine encephalitis virus.
The test system of data set [2] is Fa2N-4 cells. Particulars: human.
For data set [3], the target named is CYP3A4 (Homo sapiens, UniProt P08684). The experiment in a line: in vitro. To be noted: pH 7.4.
For data set [4], the target named is CYP2C9 (Homo sapiens, UniProt P11712). The experiment in a line: in vitro. To be noted: pH 7.4.
Data set [5] has as its system VEEV (TC-83). To be noted: mouse, in vivo.
For data set [6] the following is noted: mouse, in vivo, ip.
Data set [7] relates to panel of 67 GPCRs, ion channels and transporters. The data set is classed as binding. Particulars: 10 µM.
Data set [8] has as its system VEEV TrD strain. The data set is classed as cell-based, Venezuelan equine encephalitis virus.
Data set [9] concerns VEEV (TC-83). Description: microbe, parasite or virus in culture. Particulars: Venezuelan equine encephalitis virus, read-out: EC50, several VEEV strains.
Data set [10] concerns the target CYP2D6 (Homo sapiens, UniProt P10635). The experiment in a line: in vitro. Particulars: pH 7.4.
For data set [11] the following is noted: male, in vivo.
A short description of data set [12]: physchem.
The target in data set [13] is CYP2C19 (Homo sapiens, UniProt P33261). The experiment in a line: in vitro. Particulars: pH 7.4.
The test system of data set [14] is VEEV (TC-83).

Sequence of CYP2D6 (P10635 whole entry): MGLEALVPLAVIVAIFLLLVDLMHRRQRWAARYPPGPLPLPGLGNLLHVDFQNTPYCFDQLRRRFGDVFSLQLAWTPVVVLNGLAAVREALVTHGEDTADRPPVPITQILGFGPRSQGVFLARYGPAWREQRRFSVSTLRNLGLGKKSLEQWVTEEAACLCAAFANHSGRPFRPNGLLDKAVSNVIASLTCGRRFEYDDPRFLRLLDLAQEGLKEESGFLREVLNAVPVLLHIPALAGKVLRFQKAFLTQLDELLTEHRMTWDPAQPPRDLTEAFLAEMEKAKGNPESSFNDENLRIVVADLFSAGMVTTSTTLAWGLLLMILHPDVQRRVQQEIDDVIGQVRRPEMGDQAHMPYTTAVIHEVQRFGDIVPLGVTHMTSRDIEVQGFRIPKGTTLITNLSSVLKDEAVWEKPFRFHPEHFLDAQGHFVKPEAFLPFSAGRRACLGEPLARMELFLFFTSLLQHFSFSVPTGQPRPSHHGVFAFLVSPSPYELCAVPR
Sequence of CYP3A4 (P08684 whole entry): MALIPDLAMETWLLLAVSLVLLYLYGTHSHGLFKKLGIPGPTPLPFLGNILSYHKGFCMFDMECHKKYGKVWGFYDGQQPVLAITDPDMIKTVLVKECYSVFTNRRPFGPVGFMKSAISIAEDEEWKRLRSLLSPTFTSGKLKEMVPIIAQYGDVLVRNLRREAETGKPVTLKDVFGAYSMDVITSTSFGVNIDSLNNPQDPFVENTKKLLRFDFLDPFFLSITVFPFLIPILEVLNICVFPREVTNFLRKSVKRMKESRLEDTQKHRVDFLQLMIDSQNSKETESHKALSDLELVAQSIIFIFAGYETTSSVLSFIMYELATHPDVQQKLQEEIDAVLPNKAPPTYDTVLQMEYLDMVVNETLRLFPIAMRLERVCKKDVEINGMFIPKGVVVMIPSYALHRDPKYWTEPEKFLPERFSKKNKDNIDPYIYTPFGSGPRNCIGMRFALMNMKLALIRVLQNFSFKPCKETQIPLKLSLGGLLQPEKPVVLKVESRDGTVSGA
Sequence of CYP2C19 (P33261 whole entry): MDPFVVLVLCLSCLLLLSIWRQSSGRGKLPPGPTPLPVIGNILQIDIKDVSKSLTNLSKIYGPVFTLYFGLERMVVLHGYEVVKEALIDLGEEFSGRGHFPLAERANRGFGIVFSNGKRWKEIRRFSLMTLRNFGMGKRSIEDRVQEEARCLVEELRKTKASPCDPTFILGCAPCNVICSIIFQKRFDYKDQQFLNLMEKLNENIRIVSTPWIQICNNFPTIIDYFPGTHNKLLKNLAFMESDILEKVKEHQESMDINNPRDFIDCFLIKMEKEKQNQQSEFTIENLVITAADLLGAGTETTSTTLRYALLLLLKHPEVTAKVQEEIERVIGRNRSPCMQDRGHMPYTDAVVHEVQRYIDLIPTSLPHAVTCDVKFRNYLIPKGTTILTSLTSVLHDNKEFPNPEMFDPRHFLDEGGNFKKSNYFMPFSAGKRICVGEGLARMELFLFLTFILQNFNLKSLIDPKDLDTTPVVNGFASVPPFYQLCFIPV
Sequence of CYP2C9 (P11712 whole entry): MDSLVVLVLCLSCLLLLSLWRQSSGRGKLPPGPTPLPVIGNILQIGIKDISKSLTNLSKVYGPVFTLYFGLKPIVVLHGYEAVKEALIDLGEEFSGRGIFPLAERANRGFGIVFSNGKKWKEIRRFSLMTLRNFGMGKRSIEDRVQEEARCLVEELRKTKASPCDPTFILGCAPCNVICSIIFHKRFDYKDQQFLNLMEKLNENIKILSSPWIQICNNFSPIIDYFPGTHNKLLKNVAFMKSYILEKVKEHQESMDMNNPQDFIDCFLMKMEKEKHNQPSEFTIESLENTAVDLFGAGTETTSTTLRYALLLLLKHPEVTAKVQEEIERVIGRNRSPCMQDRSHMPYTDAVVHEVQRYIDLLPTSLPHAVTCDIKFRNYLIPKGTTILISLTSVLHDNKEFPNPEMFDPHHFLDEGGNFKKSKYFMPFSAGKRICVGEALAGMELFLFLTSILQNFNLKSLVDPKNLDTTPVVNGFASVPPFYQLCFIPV

As to `CCN1CCN(Cc2nc3ccc([N+](=O)[O-])cc3c(=O)n2-c2ccccc2F)CC1` [compound 1, 2-((4-Ethylpiperazin-1-yl)methyl)-3-(2-fluorophenyl)-6-nitroquinazolin-4(3H)-one], the “titer reduction, TC-83 strain (log)” value in data set [1] is on record as 0.5 log (3-fold).

For orientation: inhibition means the relative decrease from the control value, in per cent. High values mean strong suppression, low ones little suppression. As a reminder, the EC50 is the concentration giving half of the maximal effect. In general, solubility refers to the concentration that dissolves in the medium under given conditions. A low value points to little dissolved substance. For the compound `CN1CCN(C)/C(=N/c2ccc([N+](=O)[O-])cc2C(=O)Nc2ccccc2)C1` [compound 45, (E)-2-((1,4-Dimethylpiperazin-2-ylidene)amino)-5-nitro-N-phenylbenzamide], in data set [2], the “hepatocyte toxicity (Fa2N-4), LD50” value is over 25 µM. The inhibition at 10 µM in data set [3], in data set [4], in [10] and in data set [13] was under 30% throughout. This compound also returned a percent survival in data set [5] of 71%. For the same compound, the “titer reduction, TC-83 strain (fold)” value in [1] was 5.8 log (630 000 fold) and 7.2 log (16 million fold). The “titer reduction, TC-83 strain, dose response, EC90” value in [1] is 170 nM. Moreover, the “toxicity (body weight loss, lethargy, hunched posture, ruffled fur)” value in data set [6] was “no apparent toxicity or adverse effects were observed”. In addition, in data set [7], the “inhibition of all other targets in the collection” value was at most 36%. In addition, the “titer reduction, TrD strain” value in data set [8] is “no measurable viral replication”. The EC50 in data set [9] was in the range of 20 to 40 nM. Also, in data set [11] (C57Bl/6, mouse), the “plasma and brain concentration over in vitro CPE assay EC50” value is given as over 10 fold. Also, the “brain average concentration ± standard deviation” value in [11] (C57Bl/6J, mouse) is 0.35 ± 0.06 µM. For the same compound, the solubility in data set [12] (aqueous solubility, VEEV CPE assay medium) is 13.1 µg/mL; in [12] (pH 7.4, aqueous solubility, 1× PBS, pH 7.4), 110 µM.

As to `COc1ccc(NC(=O)c2cc([N+](=O)[O-])ccc2/N=C2\CN(C)CCN2C)cc1` [compound 51, (E)-2-((1,4-Dimethylpiperazin-2-ylidene)amino)-N-(4-methoxyphenyl)-5-nitrobenzamide], in data set [14], the “lipophilic ligand efficiency, LLE” value worked out at 4.1. Moreover, in [1], the “titer reduction, TC-83 strain (fold)” value is listed as 7.2 log (16 million fold); the “titer reduction, TC-83 strain (log)” value was 7.2 log (16 million fold); the “titer reduction, TC-83 strain, dose response, EC90” value was 170 nM. Besides, the “titer reduction, TrD strain” value in data set [8] was “no measurable viral replication”.
